The values below come from patent publication US8895754B2, “Process to make UV radiation absorbing 2-phenyl-1,2,3,-benzotriazoles” (DSM IP Assets B.V., priority 2010, dated 2014).

This data set in a line: Determination of the solubility in cosmetic solvents. The settings on record: saturated solution stirred 7 days at room temperature, concentration by HPLC; for solubility Finsolv TN: C12-15 Alkylbenzoate; for solubility Myritol 318: Capric/Caprylic Triglyceride. Type of data set: physicochemical.

Method: 1.5 g of a cosmetic solvent (Capric/Caprylic Triglyceride (Mygliol 318) and C12-15 Alkylbenzoate (Finsolv TN)) is saturated with the respective Benzotriazol-derivative by adding 0.2 g portions while stirring at room temperature. The saturated solution is stirred for 7 days at room temperature. 1 ml of the supernatant is centrifuged and filtered in order to obtain a clear solution. The concentration of the Benzotriazol-derivative is determined by means of HPLC.

Consider `Cc1cc(COCCC(C)C)c(O)c(-n2nc3ccccc3n2)c1` [Example 4, 2-(2H-Benzotriazol-2-yl)-6-(3-methyl-butoxymethyl)-4-methyl-phenol], for which the “solubility Finsolv TN” value is recorded as 37% and the “solubility Myritol 318” value amounted to 36%.

With `Cc1cc(COCCC(C)C)c(O)c(-n2nc3ccc(Cl)cc3n2)c1` [Example 6, 2-(5-Chloro-2H-benzotriazol-2-yl)-4-methyl-6-(3-methyl-butoxymethyl)-phenol], the “solubility Finsolv TN” value is given as 19% and the “solubility Myritol 318” value is given as 12%.

`CCCCC(CC)C(=O)OCc1cc(C)cc(-n2nc3ccccc3n2)c1O` (stereo not shown) [Example 7, 2-Ethyl-hexanoic Acid 3-(2H-benzotriazol-2-yl)-2-hydroxy-5-methyl-benzyl Ester]: the “solubility Finsolv TN” value was 42% and the “solubility Myritol 318” value worked out at 24%.

Regarding `Cc1cc(COC(=O)CC(C)C)c(O)c(-n2nc3ccccc3n2)c1` [Example 8, 3-Methyl-butyric Acid 3-(2H-benzotriazol-2-yl)-2-hydroxy-5-methyl-benzyl Ester], the “solubility Finsolv TN” value stood at 8% and the “solubility Myritol 318” value is given as 6%.

As to `Cc1cc(COCc2cc(C)cc(-n3nc4ccccc4n3)c2O)c(O)c(-n2nc3ccccc3n2)c1` [Example 9, 3,3′-Bis(2H-benzotriazol-2-yl)-2,2′-dihydroxy-5,5′-dimethylbenzyl Ether], the “solubility Finsolv TN” value is 0.02% and the “solubility Myritol 318” value is listed as 0.01%.
